# Test results taken from PMC8121435, “Cork-in-bottle mechanism of inhibitor binding to mammalian complex I” (Science Advances, 2021).
# Where “and” joins values, the source holds several entries; their conditions need not be identical. Equal values may be shown once.
# Assays:
# Type in all cases: biochemical
# [1] = target: T1, yeast (Y. lipolytica) complex I (Yarrowia lipolytica, UniProt Q9B6E8+Q9UUT7+Q9UUU1); assay: NADH:decylubiquinone oxidoreduction by purified Y. lipolytica complex I
# T1 sequence (Q9B6E8 1-341): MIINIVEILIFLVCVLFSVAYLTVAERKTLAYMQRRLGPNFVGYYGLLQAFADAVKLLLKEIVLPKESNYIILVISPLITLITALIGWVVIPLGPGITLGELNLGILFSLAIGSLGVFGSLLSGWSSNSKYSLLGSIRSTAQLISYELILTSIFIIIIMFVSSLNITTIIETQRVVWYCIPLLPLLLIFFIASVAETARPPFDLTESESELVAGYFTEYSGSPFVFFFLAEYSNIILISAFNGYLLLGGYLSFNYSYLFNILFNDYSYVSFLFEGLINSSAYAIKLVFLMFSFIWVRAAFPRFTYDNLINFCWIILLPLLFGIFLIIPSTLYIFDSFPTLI
# T1 sequence (Q9UUU1 22-466): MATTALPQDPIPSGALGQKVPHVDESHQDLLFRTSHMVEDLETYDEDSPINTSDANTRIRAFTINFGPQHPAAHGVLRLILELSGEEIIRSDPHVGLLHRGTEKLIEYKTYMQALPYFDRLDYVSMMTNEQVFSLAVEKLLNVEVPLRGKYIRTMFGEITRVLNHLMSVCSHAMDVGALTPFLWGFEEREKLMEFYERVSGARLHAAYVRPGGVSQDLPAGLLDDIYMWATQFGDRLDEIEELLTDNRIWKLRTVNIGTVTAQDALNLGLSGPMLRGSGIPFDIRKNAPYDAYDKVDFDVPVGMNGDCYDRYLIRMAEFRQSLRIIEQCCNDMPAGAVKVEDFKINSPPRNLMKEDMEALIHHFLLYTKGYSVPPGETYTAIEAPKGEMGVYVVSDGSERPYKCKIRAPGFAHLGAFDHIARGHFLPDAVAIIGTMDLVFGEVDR
# T1 sequence (Q9UUT7 28-210): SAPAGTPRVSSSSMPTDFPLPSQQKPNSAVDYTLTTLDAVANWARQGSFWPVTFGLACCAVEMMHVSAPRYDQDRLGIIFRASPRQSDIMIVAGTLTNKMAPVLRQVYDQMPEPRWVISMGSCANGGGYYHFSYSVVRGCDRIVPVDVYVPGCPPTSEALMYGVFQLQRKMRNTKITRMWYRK
# Procedure: All catalytic activity assays were conducted at 32°C in 96-well plates using a Molecular Devices Spectramax 384 plus plate reader. Catalysis was initiated by addition of 200 μM NADH and monitored at 340 and 380 nm (ε340–380 = 4.81 mM^−1 cm^−1). Linear rates were measured for all assays, inhibitors were added from dimethyl sulfoxide stock solutions as required, and inhibitor-insensitive rates (using either 1 μM piericidin A or 1.4 μM IACS-2858) were subtracted from each measured rate. Membrane samples were prepared as described previously ([17], [20], [59], [60]), diluted to 20 μg ml^−1 in 10 mM tris-SO4 (pH 7.5) and 250 mM sucrose, and supplemented with 3 μM horse heart cytochrome c (except for P. denitrificans, for which the activity is unaffected by the addition). Mouse, bovine, and yeast (Y. lipolytica) complex I were purified as described previously ([17], [20], [59]); diluted to 0.5 nM in 20 mM tris-HCl (pH 7.5), 0.15% asolectin, and 0.15% CHAPS; and assayed using either 200 μM dQ or 200 μM ubiquinone-1 (Sigma-Aldrich). Complex I was purified from P. denitrificans strain Pd1222 ([61]) and provided by O. D. Jarman (MRC Mitochondrial Biology Unit, University of Cambridge); it was assayed likewise but in 10 mM MES-HCl (pH 6.5), 25 mM NaCl, and 2 mM CaCl2. […]
# complex I in bovine SMPs = target: T2, complex I in bovine SMPs (Bos taurus, UniProt P03887+P17694+P42026); assay: Reverse electron transport (succinate oxidation-driven NAD+ reduction) in bovine heart submitochondrial particles
# T2 construct: Complex I from bovine heart were prepared; from tissue; host or cells: bovine heart mitochondria
# Procedure: All catalytic activity assays were conducted at 32°C in 96-well plates using a Molecular Devices Spectramax 384 plus plate reader. Catalysis was initiated by addition of 200 μM NADH and monitored at 340 and 380 nm (ε340–380 = 4.81 mM^−1 cm^−1). Linear rates were measured for all assays, inhibitors were added from dimethyl sulfoxide stock solutions as required, and inhibitor-insensitive rates (using either 1 μM piericidin A or 1.4 μM IACS-2858) were subtracted from each measured rate. Membrane samples were prepared as described previously ([17], [20], [59], [60]), diluted to 20 μg ml^−1 in 10 mM tris-SO4 (pH 7.5) and 250 mM sucrose, and supplemented with 3 μM horse heart cytochrome c (except for P. denitrificans, for which the activity is unaffected by the addition). Mouse, bovine, and yeast (Y. lipolytica) complex I were purified as described previously ([17], [20], [59]); diluted to 0.5 nM in 20 mM tris-HCl (pH 7.5), 0.15% asolectin, and 0.15% CHAPS; and assayed using either 200 μM dQ or 200 μM ubiquinone-1 (Sigma-Aldrich). Complex I was purified from P. denitrificans strain Pd1222 ([61]) and provided by O. D. Jarman (MRC Mitochondrial Biology Unit, University of Cambridge); it was assayed likewise but in 10 mM MES-HCl (pH 6.5), 25 mM NaCl, and 2 mM CaCl2. Bovine SMPs were prepared as described previously ([61]) and diluted to 20 μg ml^−1 in 10 mM tris-SO4 (pH 7.5) and 250 mM sucrose for FET and RET assays. The RET assay was initiated using 1 mM NAD^+, 1 mM ATP, 10 mM succinate, 1 mM cyanide, and 2 mM MgSO4, in the absence of NADH. AOX from Trypanosoma brucei brucei was prepared as described previously ([23]). Complex I proteoliposomes were assayed using 10 mM Mops-KOH (pH 7.5), 50 mM KCl, and AOX (10 μg ml^−1).
# mouse complex I = target: T3, mouse complex I (Mus musculus, UniProt P03888+Q91WD5+Q9DC70); assay: Extent of inhibition of isolated IACS-2858-bound mouse complex I prepared for cryo-EM; conditions: isolated inhibitor-bound enzyme after size exclusion, initial rate versus control without inhibitor; cryo-EM sample
# T3 construct: from tissue; host or cells: mouse (C57BL/6) heart mitochondria
# Procedure: Complex I inhibited by IACS-2858 was prepared by a method adapted from that of Bridges et al. ([23]) for preparing mouse complex I inhibited by piericidin A1. C57BL/6 mice were euthanized by cervical dislocation in accord with the UK Animals (Scientific Procedures) Act 1986 (PPL: P6C97520A, approved by the local ethics committee and the UK Home Office), and mitochondrial membranes were prepared from heart tissue as described previously ([20]). Starting from membranes containing ~40 mg of total protein, the proteins were solubilized from the membranes by addition of 1% DDM (Glycon), and the mixture was centrifuged. […] The level of inhibition achieved was determined by comparing the initial rates of catalysis by the control and inhibited samples in buffer containing 20 mM tris-HCl (pH 7.5 at 32°C), 0.15% soy bean asolectin (Avanti Polar Lipids), and 0.15% CHAPS (Merck Chemicals Ltd.), using 200 μM dQ, with catalysis initiated by 200 μM NADH and monitored at 340 to 380 nm (ε = 4.81 mM^−1 cm^−1). […] The concentration of the peak fraction for the inhibited protein, eluting at ~1.65 ml, was estimated using a NanoDrop ultraviolet-visible spectrophotometer [ε280 = 0.2 (mg ml^−1)^−1], and the level of inhibition of the final eluted IACS-2858–treated sample was determined as above. […]
smiles,measurement,setting,value
"CS(=O)(=O)C1CCN(c2cccc(Cn3cc(-c4nc(-c5ccc(OC(F)(F)F)cc5)no4)ccc3=O)c2)CC1 [IACS-2858, 1-(3-(4-(Methylsulfonyl)piperidin-1-yl)benzyl)-5-(3-(4-(trifluoromethoxy)phenyl)-1,2,4-oxadiazol-5-yl)pyridin-2(1H)-one]",IC50,[1],358 ± 37 nM
same,IC50,"complex I in bovine SMPs; bovine SMPs, succinate oxidation-driven NAD+ reduction rate, ± SE",3.1 ± 0.1 nM
same,inhibition of RET favoured over FET,"complex I in bovine SMPs; bovine heart SMPs, RET versus FET",> 2 fold
same,extent of inhibition,mouse complex I,81 ± 5% and 81.3 ± 4.7%
